Measurements as given in PubChem BioAssay (NCI).
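48-hour exposure; five concentrations; linearly interpolated endpoints. Abbreviation: GI50, concentration required for 50% inhibition of growth. TGI: total growth inhibition.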

Columns and labels:
Experiment in all cases: growth of human tumour cells (NCI), 48 h
[1] = system: A549 NSCLC
[2] = system: LOX IMVI melanoma
[3] = system: MALME-3M melanoma
[4] = system: SR leukemia
[5] = system: HT29 colon
[6] = system: OVCAR-3 ovarian
[7] = system: SF-295 CNS
[8] = system: UACC-257 melanoma
[9] = system: BT-549 breast
[10] = system: NCI-H460 lung
[11] = system: UO-31 renal
[12] = system: TK-10 renal
[13] = system: OVCAR-8 ovarian
[14] = system: SF-539 CNS
[15] = system: SN12C renal
[16] = system: SNB-75 CNS
[17] = system: MDA-MB-231 breast
[18] = system: SF-268 CNS
[19] = system: CAKI-1 renal
[20] = system: HOP-62 NSCLC
[21] = system: NCI-H522 lung
[22] = system: COLO 205 colon
[23] = system: OVCAR-4 ovarian
[24] = system: SW-620 colon
[25] = system: SNB-19 CNS
[26] = system: HL-60(TB) leukemia
[27] = system: MOLT-4 leukemia
[28] = system: IGROV1 ovarian
[29] = system: 786-0 renal
[30] = system: HOP-92 NSCLC
[31] = system: HS 578T breast
[32] = system: M14 melanoma
[33] = system: KM12 colon
[34] = system: MCF7 breast
[35] = system: MDA-MB-435
[36] = system: RXF 393 renal
[37] = system: NCI/ADR-RES ovarian
[38] = system: RPMI-8226 leukemia
[39] = system: T-47D breast
[40] = system: SK-OV-3 ovarian
[41] = system: NCI-H226 lung
[42] = system: SK-MEL-2 melanoma
[43] = system: HCT-116 colon
[44] = system: A498 renal
[45] = system: PC-3 prostate
[46] = system: NCI-H23 lung
[47] = system: ACHN renal
[48] = system: CCRF-CEM leukemia
[49] = system: UACC-62 melanoma
[50] = system: K-562 leukemia
[51] = system: U251 CNS
[52] = system: DU-145 prostate
[53] = system: OVCAR-5 ovarian
[54] = system: HCC-2998 colon
[55] = system: SK-MEL-28 melanoma
[56] = system: HCT-15 colon
[57] = system: SK-MEL-5 melanoma

N#CCc1ncc(-c2ccc(C(F)(F)F)cc2)c(NC2CCCCCC2)n1
GI50 [1]: > 10 µM
TGI [1]: > 10 µM
GI50 [2]: > 10 µM
TGI [2]: > 10 µM
GI50 [3]: > 10 µM
TGI [3]: > 10 µM
GI50 [4]: > 10 µM
TGI [4]: > 10 µM
GI50 [5]: > 10 µM
TGI [5]: > 10 µM
GI50 [6]: > 10 µM
TGI [6]: > 10 µM
GI50 [7]: > 10 µM
TGI [7]: > 10 µM
GI50 [8]: > 10 µM
TGI [8]: > 10 µM
GI50 [9]: > 10 µM
TGI [9]: > 10 µM
GI50 [10]: > 10 µM
TGI [10]: > 10 µM
GI50 [11]: > 10 µM
TGI [11]: > 10 µM
GI50 [12]: > 10 µM
TGI [12]: > 10 µM
GI50 [13]: > 10 µM
TGI [13]: > 10 µM
GI50 [14]: > 10 µM
TGI [14]: > 10 µM
GI50 [15]: > 10 µM
TGI [15]: > 10 µM
GI50 [16]: > 10 µM
TGI [16]: > 10 µM
GI50 [17]: > 10 µM
TGI [17]: > 10 µM
GI50 [18]: > 10 µM
TGI [18]: > 10 µM
GI50 [19]: > 10 µM
TGI [19]: > 10 µM
GI50 [20]: > 10 µM
TGI [20]: > 10 µM
GI50 [21]: > 10 µM
TGI [21]: > 10 µM
GI50 [22]: > 10 µM
TGI [22]: > 10 µM
GI50 [23]: > 10 µM
TGI [23]: > 10 µM
GI50 [24]: > 10 µM
TGI [24]: > 10 µM
GI50 [25]: > 10 µM
TGI [25]: > 10 µM
GI50 [26]: > 10 µM
TGI [26]: > 10 µM
GI50 [27]: > 10 µM
TGI [27]: > 10 µM
GI50 [28]: > 10 µM
TGI [28]: > 10 µM
GI50 [29]: > 10 µM
TGI [29]: > 10 µM
GI50 [30]: > 10 µM
TGI [30]: > 10 µM
GI50 [31]: > 10 µM
TGI [31]: > 10 µM
GI50 [32]: > 10 µM
TGI [32]: > 10 µM
GI50 [33]: > 10 µM
TGI [33]: > 10 µM
GI50 [34]: > 10 µM
TGI [34]: > 10 µM
GI50 [35]: > 10 µM
TGI [35]: > 10 µM
GI50 [36]: > 10 µM
TGI [36]: > 10 µM
GI50 [37]: > 10 µM
TGI [37]: > 10 µM
GI50 [38]: > 10 µM
TGI [38]: > 10 µM
GI50 [39]: > 10 µM
TGI [39]: > 10 µM
GI50 [40]: > 10 µM
TGI [40]: > 10 µM
GI50 [41]: > 10 µM
TGI [41]: > 10 µM
GI50 [42]: > 10 µM
TGI [42]: > 10 µM
GI50 [43]: > 10 µM
TGI [43]: > 10 µM
GI50 [44]: > 10 µM
TGI [44]: > 10 µM
GI50 [45]: > 10 µM
TGI [45]: > 10 µM
GI50 [46]: > 10 µM
TGI [46]: > 10 µM
GI50 [47]: > 10 µM
TGI [47]: > 10 µM
GI50 [48]: > 10 µM
TGI [48]: > 10 µM
GI50 [49]: > 10 µM
TGI [49]: > 10 µM
GI50 [50]: > 10 µM
TGI [50]: > 10 µM
GI50 [51]: > 10 µM
TGI [51]: > 10 µM
GI50 [52]: > 10 µM
TGI [52]: > 10 µM
GI50 [53]: > 10 µM
TGI [53]: > 10 µM
GI50 [54]: > 10 µM
TGI [54]: > 10 µM
GI50 [55]: > 10 µM
TGI [55]: > 10 µM
GI50 [56]: > 10 µM
TGI [56]: > 10 µM
GI50 [57]: > 10 µM
TGI [57]: > 10 µM
